Here are results for 10 compounds from publication PMC2966039 (Journal of Medicinal Chemistry, 2009).

One test addresses T1, TbPTR1 (Trypanosoma brucei brucei, UniProt O76290).
T1 sequence (O76290 1-268): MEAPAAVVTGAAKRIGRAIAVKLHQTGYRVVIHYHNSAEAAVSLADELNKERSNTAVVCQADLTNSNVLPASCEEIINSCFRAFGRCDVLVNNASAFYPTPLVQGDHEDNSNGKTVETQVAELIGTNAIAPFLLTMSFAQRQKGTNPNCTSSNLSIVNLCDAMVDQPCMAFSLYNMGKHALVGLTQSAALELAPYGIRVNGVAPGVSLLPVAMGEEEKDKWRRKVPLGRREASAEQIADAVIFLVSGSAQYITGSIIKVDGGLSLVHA
Put plainly: TbPTR1 activity assay. It is filed as biochemical. Conditions: for Hill slope: averaged over at least two independent measurements; for ligand efficiency: from Ki^app.

Another test concerns the target LmPTR1. Particulars: cited from earlier work.

For the compound `COC(=O)c1ccc2nc(N)sc2c1` [Compound 2], on TbPTR1, the Hill slope – broadly, a measure of the steepness of the concentration-response curve – amounted to 0.6 and the ligand efficiency turned out to be 0.46 kcal mol^−1/heavy atom.
Taken in the same sequence, the figures for `Nc1nc2ccc(Cl)cc2[nH]1` [Compound 4, 2-Amino-6-chloro-benzimidazole] were 0.9 and 0.62 kcal mol^−1/heavy atom.
As to `Cc1cccc(-c2ccc3nc(N)[nH]c3c2)c1` [Compound 6], the Hill slope at TbPTR1 was determined as 1.1.
In turn, `Nc1nc2cccc(-c3ccccc3)c2n1Cc1ccc(Cl)c(Cl)c1` [Compound 12, 7-Phenyl-1-(3,4-dichlorobenzyl)-1H-benzo[d]imidazol-2-amine] showed a Hill slope on TbPTR1 of 0.7.
`Nc1nc2cccc(Cl)c2n1Cc1ccc(Cl)c(Cl)c1` [Compound 10, 7-Chloro-1-(3,4-dichlorobenzyl)-1H-benzo[d]imidazol-2-amine]: the Hill slope on TbPTR1 is on record as 1.0.
As for `Cc1cnc2nc(N)nc(N)c2n1` [6-methylpteridine-2,4-diamine], the inhibition constants entry on LmPTR1 is “low micromolar range”.
On TbPTR1, `Nc1nc2ccc(C(=O)N3CCCCC3)cc2s1` [Compound 3] gave a Hill slope of 0.6 and a ligand efficiency of 0.29 kcal mol^−1/heavy atom.
On TbPTR1, `Nc1nc2ccccc2n1Cc1ccc(Cl)c(Cl)c1` [Compound 9, 1-(3,4-dichloro-benzyl)-2-amino-benzimidazole] showed a Hill slope of 0.7. The increase in affinity result at TbPTR1 (compared to the virtual screening hit (4)) was “more than 20 fold”.
Regarding `CCCOc1cccc2nc(N)n(Cc3ccc(Cl)c(Cl)c3)c12` [Compound 11, 7-(n-Propyloxy)-1-(3,4-dichlorobenzyl)-1H-benzo[d]imidazol-2-amine], the increase in potency at TbPTR1 (compared to the 7-chloro derivative 10) is reported as 10 fold.
For the compound `Nc1nc2ccccc2[nH]1` [Compound 5, 2-amino-benzimidazole], the Hill slope at TbPTR1 was 0.9. For the same compound, the drop in affinity entry on TbPTR1 (compared to 4) is reported as “more than 20 fold”.
